Experimental data published in patent US11896010B2, “Uracil compound and use thereof” (Sumitomo Chemical Company, Limited, priority 2018, dated 2024).

Experiments:
Type in all cases: in vivo
Ipomoea hederacea = test: Test Example 1: post-emergence foliage spray pot test in greenhouse, weed control efficacy; details: for weed control efficacy score (0 to 100), Ipomoea hederacea: foliar spray 204 L/ha on plants grown 15 days, evaluated after 11 days, 0 = same as untreated, 100 = completely dead; for weed control efficacies against Ipomoea hederacea (in words): summary of the test at 80 and 40 gai/ha
Experimental: (§1) Next, weed control efficacies of the Compound A and safety (phytotoxicity) of the Compound A against a useful plant are shown by a Test Example.
(§2) Here the “untreated group” represents a group where the same treatment procedure as that of the treated group except not using the Compound A is done.
(§3) A plastic pot was filled with soil, thereto Amaranthus retroflexus, Ipomoea hederacea, and corn were seeded, and they were grown in a greenhouse for 15 days. Separately, a prescribed amount of a formulation prepared according to the process described in the Formulation Example 1 was diluted with water comprising 1% of Agridex (registered trademark) to obtain a diluent. Said diluent was homogeneously sprayed from above of said plants in a ratio of 204 L/ha such that the applied amount of the Compound A was 80 gai/ha or 40 gai/ha. Then, said plants were grown in a greenhouse for 11 days and evaluated according to the above criteria.
(§4) The Compound B was used instead of the Compound A to carry out the same test as the Test Example 1.

Amaranthus retroflexus = test: as above; details: for weed control efficacy score (0 to 100), Amaranthus retroflexus: foliar spray 204 L/ha on plants grown 15 days, evaluated after 11 days, 0 = same as untreated, 100 = completely dead; for weed control efficacies against Amaranthus retroflexus (in words): summary of the test at 80 and 40 gai/ha
Experimental: as §1, §2, §3, §4

corn = test: Test Example 1: post-emergence foliage spray pot test in greenhouse, safety (phytotoxicity) against a useful plant; details: for phytotoxicity score (0 to 100), corn: foliar spray 204 L/ha on plants grown 15 days, evaluated after 11 days, 0 = same as untreated, 100 = completely dead
Experimental: as §1, §2, §3, §4

Compound | weed control efficacy score (0 to 100), Ipomoea hederacea (Ipomoea hederacea; applied amount 40 gai/ha) | weed control efficacy score (0 to 100), Ipomoea hederacea (Ipomoea hederacea; applied amount 80 gai/ha) | weed control efficacies against Ipomoea hederacea (in words) (Ipomoea hederacea) | weed control efficacy score (0 to 100), Amaranthus retroflexus (Amaranthus retroflexus; applied amount 40 gai/ha) | weed control efficacy score (0 to 100), Amaranthus retroflexus (Amaranthus retroflexus; applied amount 80 gai/ha) | weed control efficacies against Amaranthus retroflexus (in words) (Amaranthus retroflexus) | phytotoxicity against corn (in words) (corn; in vivo) | phytotoxicity score (0 to 100), corn (corn; applied amount 40 gai/ha) | phytotoxicity score (0 to 100), corn (corn; applied amount 80 gai/ha) | phytotoxicity against corn (in words) (corn; summary of the test at 80 and 40 gai/ha)
CCOC(=O)COc1nc(-n2c(=O)cc(C(F)(F)F)n(C)c2=O)ccc1Oc1cc(-n2c(=O)cc(C(F)(F)F)n(C)c2=O)c(F)cc1Cl [Compound A] | 95 | 100 | high weed control efficacies | 100 | 100 | high weed control efficacies | low phytotoxicity |  |  | 
CCOC(=O)COc1ncccc1Oc1cc(-n2c(=O)cc(C(F)(F)F)n(C)c2=O)c(F)cc1Cl [Compound B] | 100 | 100 | high weed control efficacies | 100 | 100 | high weed control efficacies |  | 100 | 100 | high phytotoxicity
